# Results as given in PubChem BioAssay (NCI).
# “And” between values parts separate entries of the source, which are not always exact repeats. Equal entries are not always repeated.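 1) Cells in 96-well plates. 2) Compound, 48 h, 5 concentrations. 3) Linear interpolation between surrounding doses. 4) Unreached endpoint = highest concentration. Here, GI50 denotes the concentration required for 50% inhibition of growth. TGI: concentration producing complete growth inhibition.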
# How the values were obtained:
# Assay in all cases: NCI anticancer screen, dose series, 48 h
# [1] = test system: HCT-116 colon
# [2] = test system: SN12C renal
# [3] = test system: HOP-62 NSCLC
# [4] = test system: SNB-75 CNS
# [5] = test system: BT-549 breast
# [6] = test system: SF-268 CNS
# [7] = test system: M14 melanoma
# [8] = test system: RXF 393 renal
# [9] = test system: TK-10 renal
# [10] = test system: SK-MEL-2 melanoma
# [11] = test system: UACC-62 melanoma
# [12] = test system: HCC-2998 colon
# [13] = test system: HT29 colon
# [14] = test system: DU-145 prostate
# [15] = test system: ACHN renal
# [16] = test system: SW-620 colon
# [17] = test system: RPMI-8226 leukemia
# [18] = test system: SNB-19 CNS
# [19] = test system: EKVX NSCLC
# [20] = test system: SK-MEL-28 melanoma
# [21] = test system: NCI-H460 lung
# [22] = test system: UACC-257 melanoma
# [23] = test system: HOP-92 NSCLC
# [24] = test system: CCRF-CEM leukemia
# [25] = test system: CAKI-1 renal
# [26] = test system: UO-31 renal
# [27] = test system: HL-60(TB) leukemia
# [28] = test system: OVCAR-8 ovarian
# [29] = test system: OVCAR-5 ovarian
smiles,measurement,setting,value
CCS(=O)(=O)c1cccc(-c2cc(C(=O)NC3CCN(C)CC3)c(C)c3[nH]c4ncc(C)cc4c23)c1,GI50,[1],0.128 µM and 0.0788 µM
same,TGI,[1],2.66 µM and 5.4 µM
same,GI50,[2],0.283 µM and 0.272 µM
same,TGI,[2],3.88 µM and 11.3 µM
same,GI50,[3],0.645 µM and 0.266 µM
same,TGI,[3],> 6.56 µM and 2.01 µM
same,GI50,[4],0.101 µM and 0.0804 µM
same,TGI,[4],0.459 µM and 0.264 µM
same,GI50,[5],1.75 µM and 0.875 µM
same,TGI,[5],5.84 µM and 2.2 µM
same,GI50,[6],0.332 µM and 0.245 µM
same,TGI,[6],2.19 µM and 1.1 µM
same,GI50,[7],1.15 µM and 0.967 µM
same,TGI,[7],> 8.78 µM and 6.73 µM
same,GI50,[8],0.957 µM and 0.512 µM
same,TGI,[8],3.11 µM and 1.56 µM
same,GI50,[9],1.71 µM and 1.44 µM
same,TGI,[9],> 8.01 µM and 6.7 µM
same,GI50,[10],0.694 µM and 0.673 µM
same,TGI,[10],3.07 µM and 3.38 µM
same,GI50,[11],0.452 µM and 0.372 µM
same,TGI,[11],2.13 µM and 2.09 µM
same,GI50,[12],0.177 µM and 0.703 µM
same,TGI,[12],2.14 µM and 4.18 µM
same,GI50,[13],0.372 µM and 0.236 µM
same,TGI,[13],> 8.44 µM and 10.3 µM
same,GI50,[14],1.21 µM and 0.745 µM
same,TGI,[14],3.48 µM and 2.35 µM
same,GI50,[15],9.87 µM and 2.64 µM
same,TGI,[15],> 10 µM and 10.6 µM
same,GI50,[16],0.268 µM and 0.143 µM
same,TGI,[16],> 10 µM and 1.85 µM
same,GI50,[17],0.736 µM and 0.929 µM
same,TGI,[17],> 7.51 µM and 9.07 µM
same,GI50,[18],0.302 µM and 0.25 µM
same,TGI,[18],> 10 µM and 6.67 µM
same,GI50,[19],1.33 µM and 0.898 µM
same,TGI,[19],> 10 µM and 11 µM
same,GI50,[20],0.834 µM and 0.566 µM
same,TGI,[20],6.53 µM and 5.09 µM
same,GI50,[21],0.201 µM and 0.0843 µM
same,TGI,[21],4.96 µM and 1.64 µM
same,GI50,[22],1.26 µM and 0.562 µM
same,TGI,[22],6.79 µM and 4.67 µM
same,GI50,[23],0.12 µM and 0.0887 µM
same,TGI,[23],0.595 µM and 0.33 µM
same,GI50,[24],0.101 µM and 0.0822 µM
same,TGI,[24],> 10 µM and 38.1 µM
same,GI50,[25],1.35 µM and 6.41 µM
same,TGI,[25],> 6.29 µM and 36.4 µM
same,GI50,[26],> 5.3 µM and 6.65 µM
same,TGI,[26],> 10 µM and 26.4 µM
same,GI50,[27],0.179 µM and 0.442 µM
same,TGI,[27],4.22 µM and 3.97 µM
same,GI50,[28],1.58 µM and 0.855 µM
same,TGI,[28],> 10 µM and 11.1 µM
same,GI50,[29],0.463 µM and 0.34 µM
same,TGI,[29],> 9.67 µM and 11.4 µM
